# Data from patent US12391697B2, “Condensed bi-heterocycles as inhibiting agents for Bruton's tyrosine kinase” (BIOGEN MA INC., priority 2019, dated 2025).
# Structures can show the parent of a compound that is named as a salt.
# Target: BTK (Homo sapiens (Human), UniProt Q06187)
# Test: In Vitro BTK Kinase Assay: Btk-PolyGAT-LS Assay
# Type: biochemical
# Settings: active BTK enzyme 0.25 nM, ATP 10 μM, polyGAT 100 nM, 30 minutes
# Protocol: In Vitro BTK Kinase Assay: Btk-PolyGAT-LS Assay
# The purpose of the BTK in vitro assay is to determine compound potency against BTK through the measurement of IC50. […] The BTK kinase reaction was done in a black 96 well plate (costar 3694). For a typical assay, a […] aliquot of a ATP/peptide master mix (final concentration; ATP 10 μM, polyGAT 100 nM) in kinase buffer (10 mM Tris-HCl pH 7.5, 10 mM MgCl2, 200 μM […], 5 mM DTT, 0.01% Triton X-100, and 0.2 mg/ml casein) is added to each well. Next, […] of a 4-fold, 40× compound titration in 100% DMSO solvent is added, followed by adding 15 uL of BTK enzyme mix in 1× kinase buffer (with a final concentration of 0.25 nM). The assay is incubated for 30 minutes before being stopped with […] of a 50 mM EDTA solution. Aliquots (5 uL) of the kinase reaction are transferred to a low volume white 384 well plate (Corning 3674), and […] of a 2× detection buffer (Invitrogen PV3574, with 4 nM Tb-PY20 antibody, Invitrogen PV3552) is added. The plate is covered and incubated for 45 minutes at room temperature. Time resolved fluorescence (TRF) on Molecular Devices M5 (332 nm excitation; 488 nm emission; 518 nm fluorescein emission) is measured.
# Sequence of BTK (Q06187 whole entry): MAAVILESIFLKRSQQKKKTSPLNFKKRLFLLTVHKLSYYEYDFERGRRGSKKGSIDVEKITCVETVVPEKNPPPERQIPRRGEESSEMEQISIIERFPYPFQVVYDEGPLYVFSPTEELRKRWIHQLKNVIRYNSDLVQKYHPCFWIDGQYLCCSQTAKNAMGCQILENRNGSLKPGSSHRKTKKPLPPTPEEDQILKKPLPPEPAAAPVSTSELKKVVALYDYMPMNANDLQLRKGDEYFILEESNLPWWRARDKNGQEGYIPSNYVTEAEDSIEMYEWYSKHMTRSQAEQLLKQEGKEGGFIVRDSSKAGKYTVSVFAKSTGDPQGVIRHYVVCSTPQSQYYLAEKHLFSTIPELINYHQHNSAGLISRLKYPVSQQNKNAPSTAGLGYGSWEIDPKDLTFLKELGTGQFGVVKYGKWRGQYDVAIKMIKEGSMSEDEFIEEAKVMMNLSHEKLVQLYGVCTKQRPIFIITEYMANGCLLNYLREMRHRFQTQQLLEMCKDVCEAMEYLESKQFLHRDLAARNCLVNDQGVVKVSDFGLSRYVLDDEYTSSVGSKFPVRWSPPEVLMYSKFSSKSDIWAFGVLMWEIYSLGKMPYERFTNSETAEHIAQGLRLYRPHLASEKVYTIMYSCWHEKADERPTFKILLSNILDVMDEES
row,Compound,IC50 [nM]
1,"Cc1cc(-c2ncnn3cc(N4C[C@@H](C)O[C@H](C)C4)cc23)ccc1CNC(=O)c1noc(C(C)(C)C)n1 (single isomer, unassigned) [Example 43]",≤ 1
2,"C=CC(=O)n1cc(-c2cc3c(-c4ccc(CNC(=O)c5noc(C(C)(C)C)n5)c(C)c4)ncnn3c2)cn1 [Example 59, N-(4-(6-(1-acryloyl-1H-pyrazol-4-yl)pyrrolo[2,1-f][1,2,4]triazin-4-yl)-2-methylbenzyl)-5-(tert-butyl)-1,2,4-oxadiazole-3-carboxamide]",≤ 1
3,Cc1cc(-c2ncnn3cc(C#N)cc23)ccc1CNC(=O)c1noc(C(C)(C)C)n1 [Example 102],1 to 10
4,COc1c(CNC(=O)c2noc(C(C)(C)C)n2)ccc(-c2ncnn3cc(-c4cnn(C)c4)cc23)c1F [Example 235],≤ 1
5,Cc1cc(-c2ccnc3ccnn23)ccc1CNC(=O)c1noc(C(C)(C)C)n1 [Example 50],1 to 10
6,COc1cc(-c2ncnn3cc(-c4cnn(C)c4)cc23)ccc1CNC(=O)c1nnc(C(C)(C)C)o1 [Example 197],1 to 10
7,"Cc1cc(-c2ncnn3cc(N4CCN(C)C[C@H]4C)cc23)ccc1CNC(=O)c1noc(C(C)(C)C)n1 [Example 70, (R)-5-(tert-butyl)-N-(4-(6-(2,4-dimethylpiperazin-1-yl)pyrrolo[2,1-f][1,2,4]triazin-4-yl)-2-methylbenzyl)-1,2,4-oxadiazole-3-carboxamide trifluoroacetate]",1 to 10
8,Cc1cc(-c2ncnn3cc(C4CCOC4)cc23)ccc1CNC(=O)c1noc(C(C)(C)C)n1 (stereo not drawn) [Example 95],1 to 10
9,Cn1cc(-c2cc3c(-c4ccc(CNC(=O)c5nnc(C(C)(C)C)o5)c(C(F)F)c4)ncnn3c2)cn1 [Example 191],≤ 1
10,Cc1cc(-c2ncnn3cc(-c4cn(C)nn4)cc23)ccc1CNC(=O)c1noc(C(C)(C)C)n1 [Example 106],≤ 1
11,"Cc1cc(-c2ncnn3cc(-c4cnn(C)c4)cc23)ccc1CNC(=O)c1nnc(C(C)(C)C(F)F)o1 [Example 3, 5-(1,1-difluoro-2-methylpropan-2-yl)-N-(2-methyl-4-(6-(1-methyl-1H-pyrazol-4-yl)pyrrolo[2,1-f][1,2,4]triazin-4-yl)benzyl)-1,3,4-oxadiazole-2-carboxamide]",≤ 1
12,Cc1cc(-c2ncnn3cccc23)ccc1CNC(=O)c1nnn(C(C)(C)C)n1 [Example 214],1 to 10
13,CC(C)(C)c1noc(C(=O)NCc2ccc(-c3ncnn4cc(N5CCOCC5)cc34)cc2C(F)F)n1 [Example 192],≤ 1
14,"Cc1cc(-c2ncnn3ccc(F)c23)ccc1CNC(=O)c1noc(C(C)(C)C)n1 [Example 19, 5-(tert-butyl)-N-(4-(5-fluoropyrrolo[2,1-f][1,2,4]triazin-4-yl)-2-methylbenzyl)-1,2,4-oxadiazole-3-carboxamide trifluoroacetate]",1 to 10
15,Cn1cc(-c2cc3c(-c4ccc(CNC(=O)c5noc(C(C)(C)C)n5)c(C(F)F)c4)ncnn3c2)cn1 [Example 219],≤ 1
16,"Cc1cc(-c2ncnn3cc(N4CCO[C@@H](C)C4)cc23)ccc1CNC(=O)c1coc(C(C)(C)C)n1 (single isomer, unassigned) [Example 144]",≤ 1
17,Cc1cc(-c2ncnn3cnc(C)c23)ccc1CNC(=O)c1noc(C(C)(C)C)n1 [Example 48],1 to 10
18,Cc1cc(-c2ncnn3cc(C4=CCOCC4)cc23)ccc1CNC(=O)c1nc(C(C)(C)C)no1 [Example 103],≤ 1
19,"Cc1cc(-c2ncnn3cc(N4CCN(C)[C@H](C)C4)cc23)ccc1CNC(=O)c1noc(C(C)(C)C)n1 (single isomer, unassigned) [Example 117]",≤ 1
20,Cc1cc(-c2ncnn3cc(N4CCOCC4)cc23)ccc1CNC(=O)c1nnn(C(C)(C)C)n1 [Example 114],≤ 1
21,Cc1cc(-c2ncnn3cc(-c4cncnc4)cc23)ccc1CNC(=O)c1noc(C(C)(C)C)n1 [Example 226],≤ 1
22,CC(C)(C)n1nnc(C(=O)NCc2cc(F)c(-c3ncnn4cccc34)cc2Cl)n1 [Example 136],> 10
23,Cc1cc(-c2ncnn3cccc23)ccc1CNC(=O)c1noc(C(C)(C)C)n1 [Example 151],1 to 10
24,Cc1cc(-c2ncnn3cc(-c4ccccn4)cc23)ccc1CNC(=O)c1noc(C(C)(C)C)n1 [Example 230],≤ 1
25,CC(C)(C)c1nnc(C(=O)NCc2ccc(-c3ncnn4cc(N5CCOCC5)cc34)c(F)c2Cl)o1 [Example 156],≤ 1
26,COc1cc(-c2ncnn3cc(-c4cnn(C)c4)cc23)ccc1CNC(=O)c1cn(C(C)(C)C)nn1 [Example 188],1 to 10
27,Cn1cc(-c2cc3c(-c4ccc(CNC(=O)c5coc(C(C)(C)C)n5)c(C(F)F)c4)ncnn3c2)cn1 [Example 211],≤ 1

row,Compound,IC50 [nM]
1,Cn1cc(-c2cc3c(-c4ccc(CNC(=O)c5cnn(C(C)(C)C)c5)c(C(F)F)c4)ncnn3c2)cn1 [Example 212],≤ 1
2,Cc1c(CNC(=O)c2cnn(C(C)(C)C)c2)ccc(-c2ncnn3cc(N4CCOCC4)cc23)c1F [Example 88],≤ 1
3,Cc1cc(-c2ncnn3cc(-c4cccnc4)cc23)ccc1CNC(=O)c1noc(C(C)(C)C)n1 [Example 169],≤ 1
4,"CO[C@H]1CCN(c2cc3c(-c4ccc(CNC(=O)c5nc(C(C)(C)C)no5)c(C)c4)ncnn3c2)C1 (single isomer, unassigned) [Example 23]",≤ 1
5,Cc1c(CNC(=O)c2nc(C(C)(C)C)no2)ccc(-c2ccnc3cc(N4CCOCC4)nn23)c1F [Example 118],1 to 10
6,Cc1cc(-c2ccnn3cnnc23)ccc1CNC(=O)c1noc(C(C)(C)C)n1 [Example 47],> 10
7,Cc1cc2c(-c3ccc(CNC(=O)c4noc(C(C)(C)C)n4)c(C)c3)ncnn2c1 [Example 55],≤ 1
8,Cn1cc(-c2cc3c(-c4ccc(CNC(=O)c5nc(C(C)(C)C)no5)c(CC(F)F)c4)ncnn3c2)cn1 [Example 207],≤ 1
9,CC(C)(C)c1coc(C(=O)NCc2ccc(-c3ncnn4cc(N5CCOCC5)cc34)cc2C(F)F)n1 [Example 222],1 to 10
10,Cc1c(CNC(=O)c2cn(C(C)(C)C)nn2)ccc(-c2ncnn3cc(N4CCOCC4)cc23)c1F [Example 87],≤ 1
11,"Cn1cc(-c2cc3c(-c4ccc(CNC(=O)c5cn(C(C)(C)C)nn5)c(C(F)F)c4)ncnn3c2)cn1 [Example 64, 1-(tert-butyl)-N-(2-(difluoromethyl)-4-(6-(1-methyl-1H-pyrazol-4-yl)pyrrolo[2,1-f][1,2,4]triazin-4-yl)benzyl)-1H-1,2,3-triazole-4-carboxamide hydrochloride]",≤ 1
12,"Cc1c(CNC(=O)c2noc(C3(C)CC3)n2)ccc(-c2ncnn3cc(-c4cnn(C)c4)cc23)c1F [Example 42, N-(3-fluoro-2-methyl-4-(6-(1-methyl-1H-pyrazol-4-yl)pyrrolo[2,1-f][1,2,4]triazin-4-yl)benzyl)-5-(1-methylcyclopropyl)-1,2,4-oxadiazole-3-carboxamide hydrochloride]",≤ 1
13,COc1cc(-c2cc3c(-c4ccc(CNC(=O)c5noc(C(C)(C)C)n5)c(C)c4)ncnn3c2)ccn1 [Example 228],≤ 1
14,Cc1cc(-c2ncnn3cc(C(=O)N4CCOCC4)cc23)ccc1CNC(=O)c1noc(C(C)(C)C)n1 [Example 215],> 10
15,CC(C)(C)n1cc(C(=O)NCc2ccc(-c3ncnn4cc(N5CCOCC5)cc34)cc2Cl)cn1 [Example 160],≤ 1
16,Cc1cc(-c2ncnn3cc(N4CCn5ccnc5C4)cc23)ccc1CNC(=O)c1nc(C(C)(C)C)no1 [Example 121],≤ 1
17,Cc1cc(-c2ncnn3cncc23)ccc1CNC(=O)c1noc(C(C)(C)C)n1 [Example 54],1 to 10
18,C[C@@H](NC(=O)c1nnc(C(C)(C)C)o1)c1ccc(-c2ncnn3cc(N4CCOCC4)cc23)cc1Cl [Example 204],1 to 10
19,"Cc1cc(-c2ncnn3cc(-c4cnn(C)c4)cc23)ccc1CNC(=O)c1noc(C(C)(C)C)n1 [Example 80, 5-(tert-butyl)-N-(2-methyl-4-(6-(1-methyl-1H-pyrazol-4-yl)pyrrolo[2,1-f][1,2,4]triazin-4-yl)benzyl)-1,2,4-oxadiazole-3-carboxamide]",≤ 1
20,CC(C)(C)c1nc(C(=O)NCc2cc(F)c(-c3ncnn4cccc34)cc2Cl)no1 [Example 132],1 to 10
21,Cn1cc(-c2cc3c(-c4ccc(CNC(=O)c5nc(C(C)(C)C)no5)c(C(F)F)c4)ncnn3c2)cn1 [Example 190],≤ 1
22,Cc1cc(-c2ncnn3cc(-c4cnn(C)c4)cc23)ccc1CNC(=O)c1ccn(C(C)(C)C)n1 [Example 168],≤ 1
23,Cc1c(CNC(=O)c2noc(C(C)(C)C)n2)ccc(-c2ccnc3cc(N4CCOCC4)nn23)c1F [Example 84],1 to 10
24,Cc1c(CNC(=O)c2nnc(C(C)(C)C)o2)ccc(-c2ncnn3cc(N4CCOCC4)cc23)c1F [Example 81],1 to 10
25,Cc1cc(-c2ncnn3cc(N4CCOCC4)cc23)ccc1CNC(=O)c1coc(C(C)(C)C)n1 [Example 176],1 to 10
26,Cn1cc(-c2cc3c(-c4ccc(CNC(=O)c5noc(C(C)(C)C)n5)c(CC(F)F)c4F)ncnn3c2)cn1 [Example 233],≤ 1
27,Cn1cc(-c2cc3c(-c4ccc(CNC(=O)c5noc(C(C)(C)C)n5)c(CC(F)F)c4)ncnn3c2)cn1 [Example 231],≤ 1
